How the values were obtained:
Assay type in all cases: cell-based
[1] = test system: methicillin-resistant Staphylococcus epidermidis (MRSE); experiment: Bacterial colony counts extracted from impregnated central venous catheters after incubation in bacterial suspension; conditions: 10^5 cfu/ml suspension in TSB, 37° C., 24 hours
Method: (§1) In this example, segments of 7 French triple lumen polyurethane central venous catheters were impregnated with α-lipoic acid using the method described elsewhere (U.S. Pat. No. 6,589,591) and were subjected to zones of inhibition. Briefly, α-lipoic acid was dissolved in 88% formic acid (at a final solution concentration of 50 mg/ml). 85% ortho-Phosphoric acid and glycerol were then added to the solution at 79:8:13 (v/v/v) (formic acid:ortho-phosphoric acid:glycerol). After mixing the solution, 300 mg/ml of potassium chloride was added to the final solution and mixed.
(§2) Catheter segments were then placed in the impregnating solution at 55° C. with agitation for 1 hour in the dark. Catheter segments were then removed from the solution and dried under a fume hood overnight in the dark. Catheter segments were rinsed with deionized water the next day and let dry for another 18 hours in the dark. After the impregnation process and drying, one-centimeter segments of impregnated catheters were individually placed in 1 ml of 10^5 cfu/ml suspensions of methicillin-sensitive Staphylococcus epidermidis (MSSE), methicillin-resistant Staphylococcus epidermidis (MRSE), methicillin-resistant Staphylococcus aureus (MRSA), Klebsiella pneumoniae, Escherichia coli, or Proteus mirabilis in trypticase soy broth (TSB) at 37° C. for 24 hours. One-centimeter segments of non-impregnated catheters were also incubated individually in each bacterial suspension at 37° C. for 24 hours as controls. Catheter segments were removed from each bacterial suspension after this period, shaken to remove excess broth containing free-floating bacteria from their surfaces, placed in 1 ml of normal saline, sonicated for 5 minutes, and vortexed for 30 seconds.
(§3) Aliquots of each suspension and subsequent dilutions were cultured quantitatively.
(§4) To evaluate the anticolonization/antimicrobial activity of central venous catheters treated with lipoamide, segments of 7 French triple lumen polyurethane central venous catheters were impregnated with lipoamide using the same patented method described in Example 1 (U.S. Pat. No. 6,589,591) with 100 mg/ml (final solution volume) of the agent. After the impregnation process and drying, Catheter segments were then placed in the impregnating solution at 55° C. with agitation for 1 hour in the dark. Catheter segments were then removed from the solution and dried under a fume hood overnight in the dark. Catheter segments were rinsed with deionized water the next day and let dry for another 18 hours in the dark. After the impregnation process and drying, one-centimeter segments of impregnated catheters were individually placed in 1 ml of 10^5 cfu/ml suspensions of MRSE, MRSA, or P. aeruginosa in trypticase soy broth (TSB) at 37° C. for 24 hours. One-centimeter segments of non-impregnated catheters were also incubated individually in each bacterial suspension at 37° C. for 24 hours as controls. Catheter segments were removed from each bacterial suspension after this period, shaken to remove excess broth containing free-floating bacteria from their surfaces, placed in 1 ml of normal saline, sonicated for 5 minutes, and vortexed for 30 seconds.
(§5) To evaluate the anticolonization/antimicrobial activity of central venous catheters treated with dihydrolipoic acid, segments of 7 French triple lumen polyurethane central venous catheters were impregnated with dihydrolipoic acid using the same patented method described in Example 1 (U.S. Pat. No. 6,589,591) with 25 mg/ml (final solution volume) of the agent. After the impregnation process and drying, Catheter segments were then placed in the impregnating solution at 55° C. with agitation for 1 hour in the dark. Catheter segments were then removed from the solution and dried under a fume hood overnight in the dark. Catheter segments were rinsed with deionized water the next day and let dry for another 18 hours in the dark. […]

[2] = test system: methicillin-resistant Staphylococcus aureus (MRSA); experiment: as above; conditions: 10^5 cfu/ml suspension in TSB, 37° C., 24 hours
Method: as §1, §2, §3, §4, §5

common pathogens [3] = experiment: Anticolonization activity of impregnated central venous catheters, overall result in words; conditions: result in words summarising the culture results
Method: as §2, §3
as §5, with “lipoamide,” for “dihydrolipoic acid,”, “lipoamide” for “dihydrolipoic acid”, “100” for “25”

common pathogens [4] = experiment: Antimicrobial activity of impregnated catheters, overall conclusion from Tables 1-8; conditions: conclusion in words from Tables 1-8
[5] = catheter impregnated with 25 mg/ml
[6] = catheter impregnated with 100 mg/ml
[7] = catheter impregnated with 50 mg/ml

Compound | Mean bacterial colony counts extracted from catheter [1, 5] | Mean bacterial colony counts extracted from catheter [2, 5] | bacterial cells adhered to treated catheter segments compared to control uncoated catheter segments (common pathogens [3]) | intrinsic antimicrobial activity (common pathogens [4]) | Mean bacterial colony counts extracted from catheter [1, 6] | Mean bacterial colony counts extracted from catheter [2, 6] | Bacterial colony counts extracted from central venous catheters [1, 7] | Bacterial colony counts extracted from central venous catheters [2, 7]
O=C(O)CCCCC(S)CCS (stereo not drawn) [Dihydrolipoic acid, 6,8-dimercaptooctanoic acid] | 380 | 50 | substantially fewer bacterial cells adhered to them | unexpected intrinsic antimicrobial activities | – | – | – | –
NC(=O)CCCCC1CCSS1 (stereo not drawn) [Lipoamide, lipoamide] | – | – | substantially fewer or no bacterial cells adhered to them | unexpected intrinsic antimicrobial activities | 0 | 0 | – | –
O=C(O)CCCCC1CCSS1 (stereo not drawn) [Lipoic acid, 1,2-dithiolane-3-pentanoic acid] | – | – | substantially fewer or no bacterial cells adhered to them | unexpected intrinsic antimicrobial activities | – | – | 60 | 0
